Laboratory results taken from PMC12370890 (Nature Communications, 2025).

Tested on: Tcie612
Assay: GC-MS of hexane extract, Michaelis-Menten fit
Type: biochemical, Trichoderma citrinoviride
Conditions: 25 mM MgCl2, 50 mM Tris-HCl pH 7.5, 100 mM KCl, 5 mM DTT, 5 mM hydroxypropyl-β-cyclodextrin, 30 °C, 30 min

Km: 86.1 ± 8.19 µM
SMILES: CC(C)=CCC/C(C)=C/CC/C(C)=C/CC/C(C)=C/COP(=O)(O)OP(=O)(O)O [GGPP]
